Data set [1] concerns SF-268 cells (glioblastoma cells). In words: Cytotoxicity assay (MTS reduction), SF-268. Type of data set: cell-based, human. The settings on record: 3 days, % of DMSO control; for activity at 4 µg/mL / activity at 20 µg/mL: Homo sapiens, SF-268, 72 h, read-out: Growth percentage SF-268 (CNS). The method, then: (§1) MCF-7 cells (human breast adenocarcinoma), NCI-H460 cells (non-small-cell lung cancer) and SF-268cells (glioblastoma cells) were cultured in a Dulbecco's modified Eagle's medium supplemented with a 10% fetal calf serum and a nonessential amino acid (Life Technologies, Inc.) and maintained at 37° C. in a humidified incubator with 5% CO2.
(§2) Human cancer cells were seeded in 96-well microtiter plates at a density of 6500, 2500 and 7500 cells/well in 100 μl of culture medium for MCF-7, NCI-H460, and SF-268, respectively. […] Cells were treated with test compounds for 3 days. Cell viability was determined by the 5-[3-(carboxymethoxy)-phenyl]-2-(4,5-dimethylthiazolyl)-3-(4-sulfophenyl)tetrazolium salt (MTS) reduction assay. Actinomycin D (10 μM, final concentration) and DMSO (0.1%, final concentration) were used as positive and vehicle controls, respectively. Results were expressed as a % of the DMSO control.
A general note: Formazan colour is commonly taken as a measure of viable cells.

In data set [2] the test system is Human adipose tissue derived stem cells (hADSCs). Briefly: Cytotoxicity assay by lactate dehydrogenase (LDH) leakage in hADSCs. The class given is cell-based. Particulars: 10 μM, % of total cell toxicity. The method, then: (§3) Human adipose tissue derived stem cells (hADSCs), which is derived from adipose tissue, were selected an maintained in a keratinocyte SFM medium (Gibco BRL, Gaithersburg, Md.) supplemented with 5% FBS, 100 U/ml of penicillin and streptomycin.
(§4) New synthetic compounds were dissolved in DMSO to a final concentration of 10 mM and stored at −20° C. The concentration used was 10 μM and freshly diluted to the medium with a final concentration of DMSO at 0.1%. Control cultures were treated with the same amount of DMSO as used in the corresponding experiments.
Lactate dehydrogenase (LDH) leakage from cells was measured to quantify the cytotoxicity by using a cytotoxicity detection kit (Roche, Germany) (Crowston, J. G. et al Invest. Ophthalmol. Vis. Sci. 1998, 39, 449). Cells were previously seeded into 48-well plates (4×10^4 cells/well). After a drug treatment, the supernatants and cell layers of the cultures were collected for assay. According to the manufacturer's guidelines for the detection kit, cell layers were lysed with 1% TritonX-100, and cell lysates and supernatants were assayed in a 96-well plate, respectively. Briefly, 100 μL of catalyst solution was added in each assay well for 20 min. Absorbance was measured with an ELISA reader with a 490 nm filter. LDH leakage was shown as relative activity (% of total cell toxicity).

Data set [3] can be described thus: Cell viability by MTT assay in hADSCs. The class given is cell-based, human. Particulars: human, human adipose tissue derived stem cells (hADSCs), % of control. The method, then:
as §3, §4
(§5) The MTT assay is a calorimetric assay based on the ability of the viable cells to reduce a soluble yellow tetrazolium salt to blue formazan crystals (Carmichael, J. et. el. Cancer Research 1987, 47, 936). After compound treatments, 350 μL of MTT solution ([…] in PBS) were added to each well and incubated for 4 hrs. DMSO was then added for another 0.5 hrs to thoroughly dissolve the dark blue crystals. The absorbance at 570 nm was measured with an ELISA reader. Inhibition of mitochondrial metabolism was shown as relative activity (% of control).

In data set [4] the test system is NCI-H460 cells (non-small-cell lung cancer). Briefly: Cytotoxicity assay (MTS reduction), NCI-H460. Type of data set: cell-based, human. Particulars: 3 days, % of DMSO control; for activity at 4 µg/mL / activity at 20 µg/mL: Homo sapiens, NCI-H460, 72 h, read-out: Growth percentage NCI-H460 (Lung). The method, then:
as §1, §2

Data set [5] relates to MCF-7 cells (human breast adenocarcinoma). Briefly: Cytotoxicity assay (MTS reduction), MCF-7. The class given is cell-based. The settings on record: 3 days, % of DMSO control; for activity at 4 µg/mL / activity at 20 µg/mL: Homo sapiens, MCF7, 72 h, read-out: Growth percentage MCF7 (Breast). The method, then:
as §1, §2

Data set [6] relates to Human adipose tissue derived stem cells (hADSCs). In words: Osteogenic differentiation and quantification of mineralization (Alizarin red S) in hADSCs. Type of data set: cell-based. The settings on record: 10 μM. The method, then: as §3, §4
Osteogenic differentiation was induced by culturing cells in an osteo-induction medium (OIM, 10% FBS, 0.1 μM dexamethasone, 10 mM β-glycerophosphate, and L-Ascorbic 2 phosphate 100 μM in low glucose DMEM) for 7-14 days. The extracellular matrix calcification was estimated by using an Alizarin red S stain (Carl, A. et al Anal. Biochem. 2004, 329, 77). The Alizarin red S-stained mineral was quantified by the osteogenesis quantification kit (CHEMICON®).

For data set [7] the test system is unchanged. In words: Cell viability by MTT assay in hADSCs. Type of data set: cell-based. The settings on record: 10 μM, % of control. The method, then: as §3, §4, §5

We go through three compounds from patent publication US8138184B2, “Isoxazole derivatives and pharmaceutical compositions comprising the same” (Kaohsiung Medical University, priority 2008, dated 2012).

In general, viability refers to a read-out of living cells in per cent, often relative to untreated cells. High values mean less harm to the cells, low ones more harm to the cells. As for `COc1ccc(-c2cnoc2-c2ccc(OC(C)C)cc2OCCCCCCN2CCCC2)cc1` [5e, 5-{4-Isopropoxy-2-[6-(pyrrolidin-1-yl)hexyloxy]phenyl}-4-(4-methoxyphenyl)isoxazole], the activity at 4 µg/mL in data set [1] (4 μg/mL) turned out to be 38%; in data set [4] (4 μg/mL) it was 22%; in data set [5] (4 μg/mL), 55%. Further, the activity at 20 µg/mL stood at 1% in data set [1] (20 μg/mL), 1% in data set [4] (20 μg/mL) and 0% in data set [5] (20 μg/mL). Besides, the “Cell cytotoxicity (3 days, LDH)” value in data set [2] is reported as 0%. In data set [3], the viability at 3 days, 10 µM was 64%. Also, in data set [6], the “osteoblast activity (mineralization in hADSCs), in words” value is “more active than ipriflavone”.
Consider “2-[4-(3,4-Dimethoxyphenyl)isoxazol-5-yl]-5-([6-(piperidin-1-yl)hexyloxy]phenol [8b]”, for which the “Growth percentage SF-268 (CNS)” value in data set [1] (4 μg/mL) was determined as 116%; in data set [1] (20 μg/mL) it was 15%. For the same compound, the “Cell cytotoxicity (3 days, LDH)” value in data set [2] turned out to be 41%. Moreover, the “Cell viability (3 days, MTT)” value in data set [7] is 11%. The “Growth percentage NCI-H460 (Lung)” value was 89% in data set [4] (4 μg/mL) and 2% in data set [4] (20 μg/mL). For the same compound, the “Growth percentage MCF7 (Breast)” value in data set [5] (4 μg/mL) is 93%; in data set [5] (20 μg/mL) it was 4%. The “Mineralization (10 days)” value in data set [6] (10 days) was determined as 285%.
Take `COc1ccc(-c2cnoc2-c2ccc(OC(C)C)cc2OCCCCN2CCCC2)cc1` [5a, 5-{4-Isopropoxy-2-[4-(pyrrolidin-1-yl)butoxy]phenyl}-4-(4-methoxyphenyl)isoxazole]: the activity at 4 µg/mL was determined as 121% in data set [1] (4 μg/mL), 81% in data set [4] (4 μg/mL) and 83% in data set [5] (4 μg/mL). For the same compound, the activity at 20 µg/mL in data set [1] (20 μg/mL) worked out at 2%; in data set [4] (20 μg/mL), 1%; in data set [5] (20 μg/mL), 1%. For the same compound, the “Cell cytotoxicity (3 days, LDH)” value in data set [2] stood at 0%. In data set [3], this compound had a viability at 3 days, 10 µM of 71%. In addition, the “osteoblast activity (mineralization in hADSCs), in words” value in data set [6] is “more active than ipriflavone”.
